In patent publication US11306095B2 (EAST CHINA UNIVERSITY OF SCIENCE AND TECHNOLOGY, priority 2015, dated 2022):
Values after ≈ are worked out from the molar mass of the structure shown. Read-outs that look alike come from different tables or passages of the source.

Legend:
Wild type EGFR = target: T1, Wild type EGFR (Homo sapiens, UniProt P00533); assay: Kinase activity test (FRET), wild type EGFR; type: biochemical
T1 construct: purchased Invitrogen PV3872
Protocol: (§1) EGFR-TK catalyses transfer of one phosphate group of adenosine triphosphate (ATP) to polypeptide substrate, poly(Glu, Tyr)4:1, which is labeled with two fluorescent groups coumarin and fluorescein.
(§2) 2.5 μL of Test Compounds, 5 μL Kinase/Peptide Substrate Mixture, 2.5 μL ATP Solution were added into a 384-well plate, and the 10 μL of reaction system was shaken for 30 s and incubated at room temperature for 1 h. 5 μL of Development Solution was added and the 15 μL of reaction system was shaken for 30 s, and incubated at room temperature for 1 h. […] The inhibitory rates of the compounds at 7 concentration gradients were determined and the IC50 value for each compound was calculated by Origin 8.0 fitting curve.
(§3) 10 concentration gradients from 5.1×10^−11 mol/L to 1.0×10^−6 mol/L were set for all compounds to be tested.
(§4) Compounds were diluted in DMSO for three times from 5.1×10^−9 M to 1×10^−4 M. 4 μL of the compound was dissolved in 96 μL of water to obtain a 4× compound solution. […] The 10 μL kinase reaction consisted of 2.5 μL compound solution, 5 μL kinase/peptide mix, 2.5 μL ATP solution. […] 5 μL of phosphorylated peptide solution, instead of the kinase/peptide mixture, was used as a 100% phosphorylation control. […] The plates were thoroughly mixed and incubated at room temperature for 1.5 hours. 5 μL of Development Solution was added into each well and then incubated for another 1 hour at room temperature, unphosphorylated peptides were cleaved during this period. Finally, 5 μL Stop Reagent was added to quench the reaction. The plates were measured with EnVision Multilabel Reader (Perkin Elmer). The experimental data were calculated using GraphPad Prism version 4.0. Each experiment was repeated more than 3 times.

EGFR-L858R/T790M = target: T2, EGFR-L858R/T790M (Homo sapiens, UniProt P00533, L858R/T790M); assay: Kinase activity test (FRET), EGFR T790M/L858R; type: biochemical
T2 construct: purchased Invitrogen PV4879
T2 sequence (P00533 25-1210 T790M/L858R): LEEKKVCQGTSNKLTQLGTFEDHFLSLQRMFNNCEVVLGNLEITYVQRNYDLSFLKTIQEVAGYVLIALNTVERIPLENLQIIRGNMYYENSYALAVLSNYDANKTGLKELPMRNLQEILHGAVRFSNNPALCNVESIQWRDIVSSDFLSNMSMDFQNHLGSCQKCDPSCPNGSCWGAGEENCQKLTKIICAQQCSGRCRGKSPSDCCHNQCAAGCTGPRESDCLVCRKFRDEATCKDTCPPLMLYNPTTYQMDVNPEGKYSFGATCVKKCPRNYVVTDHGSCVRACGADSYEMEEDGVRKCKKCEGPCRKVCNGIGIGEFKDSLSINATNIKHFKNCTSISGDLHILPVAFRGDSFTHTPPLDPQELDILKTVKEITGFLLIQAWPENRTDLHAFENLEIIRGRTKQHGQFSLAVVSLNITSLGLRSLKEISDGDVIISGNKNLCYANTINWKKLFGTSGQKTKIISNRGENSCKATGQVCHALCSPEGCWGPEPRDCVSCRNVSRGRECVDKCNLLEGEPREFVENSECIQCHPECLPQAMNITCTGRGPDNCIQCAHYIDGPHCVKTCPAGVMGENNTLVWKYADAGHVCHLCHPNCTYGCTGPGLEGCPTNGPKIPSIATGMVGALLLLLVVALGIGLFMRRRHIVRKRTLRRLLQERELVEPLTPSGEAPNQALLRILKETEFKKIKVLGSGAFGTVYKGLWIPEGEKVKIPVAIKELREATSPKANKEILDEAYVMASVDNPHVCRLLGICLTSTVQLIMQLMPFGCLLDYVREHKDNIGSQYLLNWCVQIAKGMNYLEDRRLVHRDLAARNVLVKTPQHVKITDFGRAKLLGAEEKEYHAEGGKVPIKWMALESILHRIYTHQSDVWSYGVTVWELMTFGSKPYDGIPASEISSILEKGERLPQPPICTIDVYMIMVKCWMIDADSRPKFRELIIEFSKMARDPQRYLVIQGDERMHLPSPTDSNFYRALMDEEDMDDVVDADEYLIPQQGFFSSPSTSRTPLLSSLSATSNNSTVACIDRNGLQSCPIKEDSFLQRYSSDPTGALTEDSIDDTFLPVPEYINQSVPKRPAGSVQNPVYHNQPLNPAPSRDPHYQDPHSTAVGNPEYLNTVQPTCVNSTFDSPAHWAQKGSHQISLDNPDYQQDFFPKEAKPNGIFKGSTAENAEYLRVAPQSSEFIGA
Protocol: as §1, §2, §3, §4

[1] = test system: H1975 cells (EGFR L858R/T790M); assay: Inhibitory activity on cell proliferation, H1975; type: cell-based; settings: Homo sapiens, NCI-H1975
Protocol: (§5) Cell proliferation activity was assessed by MTS assay. Cells were exposed to processing conditions for 72 hours and the number of cells used in each experiment for each cell line was adjusted based on absorbance values (absorbance values at 490 nm, 1.3-2.2). Six concentration gradients (0.1 nM-10 μM) were set for the compounds to be tested, wherein at least 6 sets of parallel controls for each concentration were used.
(§6) H1975, A431 cells were cultured in corresponding media, and cells were passaged at least twice after resuscitation and then used for experiments. Cells at Log phase were trypsinized and resuspended in culture medium. H1975 (1000 cells per well), A431 (2000 cells per well) were seeded in 96-well plates in a volume of 100 μL; and 6 sets of parallel controls and 7 columns were set. The plate was placed in a 37° C. 5% CO2 incubator overnight. Compounds were dissolved in DMSO to a concentration of […], and then the concentration was gradually diluted to 10 μM, 1 μM, 0.1 μM, 0.01 μM, 0.001 μM, 0.0001 μM per liter, respectively. 2 μL of the compound solution was added to 998 μL of medium, and the mixture was thoroughly mixed. 100 μL of the mixture was added to a 96-well plate. […] After culturing for 68 hours, 20 μL of MTT (5 mg/mL) was added. After 4 hours, the supernatant was discarded and 150 μL of DMSO was added. After shaking for 10 minutes, the plate was read with Synergy HT (Bio TeK) (OD490). Data were calculated using GraphPad Prism version 4.0 and IC50 values were obtained using a non-linear regression model of dose response curve.

[2] = test system: A431 cells (EGFR wild type); assay: Inhibitory activity on cell proliferation, A431; type: cell-based; settings: Homo sapiens, A-431
Protocol: as §5, §6

[3] = Determination of solubility in water (PBS 20 mM, pH 6.8); type: physicochemical; settings: PBS buffer, aqueous buffer, thermodynamic from solid
Protocol: The suspension was filtered through a 0.22 μm PVDF filter, and then diluted to an appropriate concentration with methanol (v=50%) and PBS (v=50%), and the absorbance was measured by a UV spectrophotometer. About 3 mg of compound was accurately weighed, and methanol was added for preparing a stock solution of 1 mg/mL. The above stock solution was taken and prepared into a solution at concentrations of 0.05, 0.04, 0.03, 0.02 and 0.01 mg/mL, respectively, PBS solution (v=50%) was added and the absorbance value was measured. Concentration c (mg/mL) as horizontal ordinate vs absorbance A as longitudinal coordinate was plotted, and a line was fitted for obtaining a standard curve (correlation coefficient greater than 0.998). The solubility of a compound in water was calculated from the standard curve.

[4] = Compound 53 before and after resolution, read-out: Inhibitory IC50 means (nM) ± SD value on tyrosine kinase activity EGFR
[5] = Compound 53 before and after resolution, read-out: Inhibitory IC50 means (nM) ± SD value on tyrosine kinase activity EGFR/T790M/L858R
[6] = Compound 53 before and after resolution, read-out: Inhibitory IC50 means (μM) ± SD value on tumor cell growth activity NCI-H1975
[7] = Compound 53 before and after resolution, read-out: Inhibitory IC50 means (μM) ± SD value on tumor cell growth activity A431
[8] = wild type EGFR, read-out: Inhibitory activity of EGFR on kinase (IC50, nM) WT
[9] = EGFR T790M/L858R, read-out: Inhibitory activity of EGFR on kinase (IC50, nM) T790M/L858R
[10] = H1975, 72 hours, read-out: Inhibitory activity on proliferation of cells (IC50, μM) H1975
[11] = A431, 72 hours, read-out: Inhibitory activity on proliferation of cells (IC50, μM) A431
[12] = pH 6.8, 20 mM PBS, read-out: Solubility (pH 6.8, g/mL)
[13] = wild type EGFR, read-out: Inhibitory activity of EGFR on kinase (IC50) WT
[14] = EGFR T790M/L858R, read-out: Inhibitory activity of EGFR on kinase (IC50) T790M/L858R

T1 sequence (P00533 25-1210): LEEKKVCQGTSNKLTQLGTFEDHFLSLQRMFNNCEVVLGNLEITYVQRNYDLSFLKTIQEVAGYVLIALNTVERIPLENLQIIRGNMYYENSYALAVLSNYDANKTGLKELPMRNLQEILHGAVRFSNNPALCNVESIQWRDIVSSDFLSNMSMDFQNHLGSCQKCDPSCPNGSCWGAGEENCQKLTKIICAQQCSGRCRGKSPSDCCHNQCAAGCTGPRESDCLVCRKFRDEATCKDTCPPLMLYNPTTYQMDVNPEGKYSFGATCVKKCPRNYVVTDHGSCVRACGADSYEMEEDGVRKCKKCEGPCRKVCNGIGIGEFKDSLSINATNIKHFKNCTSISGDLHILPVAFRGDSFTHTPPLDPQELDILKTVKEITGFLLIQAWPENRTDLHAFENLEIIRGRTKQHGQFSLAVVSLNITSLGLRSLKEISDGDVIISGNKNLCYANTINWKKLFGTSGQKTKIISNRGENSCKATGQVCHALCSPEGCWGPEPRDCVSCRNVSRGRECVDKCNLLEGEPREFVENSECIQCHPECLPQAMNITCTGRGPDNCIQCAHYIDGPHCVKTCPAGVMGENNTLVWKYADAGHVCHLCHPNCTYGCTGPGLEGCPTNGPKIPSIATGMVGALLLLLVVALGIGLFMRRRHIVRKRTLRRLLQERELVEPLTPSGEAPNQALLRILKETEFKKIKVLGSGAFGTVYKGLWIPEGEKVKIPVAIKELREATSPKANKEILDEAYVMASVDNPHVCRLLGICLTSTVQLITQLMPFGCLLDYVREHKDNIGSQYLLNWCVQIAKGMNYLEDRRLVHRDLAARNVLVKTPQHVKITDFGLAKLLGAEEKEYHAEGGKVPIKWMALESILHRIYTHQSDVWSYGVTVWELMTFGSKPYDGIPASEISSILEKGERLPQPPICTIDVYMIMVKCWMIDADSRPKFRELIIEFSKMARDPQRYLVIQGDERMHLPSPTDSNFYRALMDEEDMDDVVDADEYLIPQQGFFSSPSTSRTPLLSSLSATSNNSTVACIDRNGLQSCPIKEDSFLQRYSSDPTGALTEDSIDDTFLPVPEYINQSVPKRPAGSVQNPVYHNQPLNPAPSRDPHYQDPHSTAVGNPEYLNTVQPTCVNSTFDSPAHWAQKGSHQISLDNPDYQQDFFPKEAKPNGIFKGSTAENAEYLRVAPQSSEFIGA

## C=CC(=O)N1CCC[C@@H](Cn2c(=O)c(-c3ccccc3)nc3cnc(Nc4ccc(N5CCN(C)CC5)cc4OC)nc32)C1 [53-1 (R)]
Wild type EGFR; [4]
  IC50: 273 ± 38 nM
EGFR-L858R/T790M; [5]
  IC50: 295 ± 85 nM
[1]; [6]
  IC50: > 10 µM
[2]; [7]
  IC50: 5.31 ± 1.04 µM

## C=CC(=O)N1CCC[C@H](Cn2c(=O)c(-c3ccccc3)nc3cnc(Nc4ccc(N5CCN(C)CC5)cc4OC)nc32)C1 [53-2 (S)]
Wild type EGFR; [4]
  IC50: 8 ± 0.8 nM
EGFR-L858R/T790M; [5]
  IC50: 15.2 ± 2.3 nM
[1]; [6]
  IC50: 0.062 ± 0.012 µM
[2]; [7]
  IC50: > 10 µM

## C=CC(=O)N1CC[C@H](n2c(=O)cnc3cnc(Nc4ccc(N5CCN(C)CC5)cc4OC)nc32)C1 [Compound 1]
Wild type EGFR; [8]
  IC50: 251 nM
EGFR-L858R/T790M; [9]
  IC50: 129 nM
[1]; [10]
  IC50: 12.2 µM
[2]; [11]
  IC50: 13.8 µM
[3]; [12]
  solubility: 1280 µg/mL (≈ 2610 µM)

## C=CC(=O)N1CC[C@@H](n2c(=O)cnc3cnc(Nc4ccc(N5CCN(C)CC5)cc4OC)nc32)C1 [Compound 2]
Wild type EGFR; [13]
  IC50: > 10000 nM
EGFR-L858R/T790M; [14]
  IC50: > 10000 nM
[1]; [10]
  IC50: 18.2 µM
[2]; [11]
  IC50: 89.6 µM
[3]; [12]
  solubility: 11100 µg/mL (≈ 22600 µM)

## C=CC(=O)N1CCC[C@H](n2c(=O)cnc3cnc(Nc4ccc(N5CCN(C)CC5)cc4OC)nc32)C1 [Compound 3]
Wild type EGFR; [13]
  IC50: > 10000 nM
EGFR-L858R/T790M; [14]
  IC50: > 10000 nM
[1]; [10]
  IC50: 33.7 µM
[2]; [11]
  IC50: 60.6 µM
[3]; [12]
  solubility: > 11400 µg/mL

## C=CC(=O)Nc1cccc(-n2c(=O)cnc3cnc(Nc4ccc(N5CCN(C)CC5)c(OC)c4)nc32)c1 [Compound 4]
Wild type EGFR; [8]
  IC50: 4.5 nM
EGFR-L858R/T790M; read-out: IC50 of inhibitory activity on EGFR-T790M/L858R kinase
  IC50: 3.9 nM
[1]; H1975 (EGFR-T790M/L858R), read-out: IC50 of inhibiting proliferation of H1975 cells
  IC50: 0.009 µM
[1]; [10]
  IC50: 0.009 µM
[2]; [11]
  IC50: 0.94 µM
[3]; 20 mM phosphate buffer, pH 6.8, read-out: solubility in water
  solubility: 1370 µg/mL (≈ 2670 µM)

## C=CC(=O)Nc1cccc(-n2c(=O)cnc3cnc(Nc4ccc(N5CCN(C)CC5)c(C)c4)nc32)c1 [Compound 5]
Wild type EGFR; [8]
  IC50: 2.4 nM
EGFR-L858R/T790M; [9]
  IC50: 0.6 nM
[1]; [10]
  IC50: 0.006 µM
[2]; [11]
  IC50: 0.82 µM
[3]; [12]
  solubility: 122 µg/mL (≈ 246 µM)

## C=CC(=O)Nc1cccc(-n2c(=O)cnc3cnc(Nc4cc(C)c(N5CCN(C)CC5)cc4OC)nc32)c1 [Compound 6, N-(3-(2-4-((2-methoxy-5-methyl-4-(4-methyl-1-piperazinyl)phenyl)amino)-7-oxo-8(7H)-pteridinyl)phenyl)acrylamide]
Wild type EGFR; [8]
  IC50: 106 nM
EGFR-L858R/T790M; [9]
  IC50: 14.8 nM
[1]; [10]
  IC50: 0.46 µM
[2]; [11]
  IC50: 1.69 µM
[3]; [12]
  solubility: 51.8 µg/mL (≈ 98.4 µM)

## C=CC(=O)Nc1cccc(-n2c(=O)cnc3cnc(Nc4ccc(N5CCN(C(C)=O)CC5)cc4OC)nc32)c1 [Compound 7, N-(3-(2-((4-(4-acetyl-1-piperazinyl)-2-methoxyphenyl)amino)-7-oxo-8(7H)-pteridinyl)phenyl)acrylamide]
Wild type EGFR; [8]
  IC50: 45.2 nM
EGFR-L858R/T790M; [9]
  IC50: 9.5 nM
[1]; [10]
  IC50: 0.197 µM
[2]; [11]
  IC50: 20.5 µM
[3]; [12]
  solubility: < 25 µg/mL

## C=CC(=O)Nc1cccc(-n2c(=O)cnc3cnc(Nc4ccc(CCN5CCN(C)CC5)cc4)nc32)c1 [Compound 8, N-(3-(2-((4-(2-(4-methyl-1-piperazinyl)ethyl)phenyl)amino)-7-oxo-8(7H)-pteridinyl)phenyl)acrylamide]
Wild type EGFR; [8]
  IC50: 5.7 nM
EGFR-L858R/T790M; [9]
  IC50: 2.1 nM
[1]; [10]
  IC50: 0.09 µM
[2]; [11]
  IC50: 0.97 µM
[3]; [12]
  solubility: 280 µg/mL (≈ 549 µM)

## C=CC(=O)Nc1cccc(-n2c(=O)cnc3cnc(Nc4ccc(N5CCN(C)CC5)cc4OCCOC)nc32)c1 [Compound 10, N-(3-(2-((2-(methoxyethoxy)-4-(4-methyl-1-piperazinyl)phenyl)amino)-7-oxo-8(7H)-pteridinyl)phenyl)acrylamide]
Wild type EGFR; [8]
  IC50: 93.7 nM
EGFR-L858R/T790M; [9]
  IC50: 191 nM
[1]; [10]
  IC50: 2.6 µM
[2]; [11]
  IC50: 7.53 µM
[3]; [12]
  solubility: 399 µg/mL (≈ 716 µM)

## C=CC(=O)N1CCC(n2c(=O)cnc3cnc(Nc4ccc(N5CCN(C)CC5)cc4OC)nc32)CC1 [Compound 15, 8-(1-acryloyl-4-piperidinyl)-2-((2-methoxy-4-(4-methyl-1-piperazinyl)phenyl)amino)-7(8H)-pteridinone]
Wild type EGFR; [8]
  IC50: 2300 nM
EGFR-L858R/T790M; [9]
  IC50: 2250 nM
[3]; [12]
  solubility: 514 µg/mL (≈ 1020 µM)

## C=CC(=O)N1CCCC(n2c(=O)c(-c3ccccc3)nc3cnc(Nc4ccc(N5CCN(C)CC5)cc4OC)nc32)C1 (stereo not shown) [Compound 58, 8-(1-acryloyl-3-piperidinyl)-2-((2-methoxy-4-(4-methyl-1-piperazinyl)phenyl)amino)-6-phenyl-7(8H)pteridinone]
[3]; [12]
  solubility: < 10 µg/mL
